GI50 and TGI data for 16 compounds are collected here from PubChem BioAssay (NCI).

Each structure is given as a SMILES string.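 Interpolation was linear, between the two tested concentrations surrounding the appropriate level; five concentrations were tested over 48 hours in 96-well plates. GI50 = concentration required for 50% inhibition of growth. Definition used: TGI = concentration required for complete inhibition of growth.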

Common to all, as to test: inhibition of tumour cell growth, NCI panel, 48 h
Assay [1] has as its system NCI-H23 lung.
Assay [2] has as its system SN12C renal.
Assay [3] concerns SF-295 CNS.
Assay [4] concerns 786-0 renal.
In assay [5] the test system is SF-539 CNS.
The subject of assay [6] is NCI-H460 lung.
The subject of assay [7] is HL-60(TB) leukemia.
Assay [8] has as its system K-562 leukemia.
Assay [9] relates to OVCAR-3 ovarian.
Assay [10] concerns HCC-2998 colon.

In the case of `COc1ccc(/C=C/C(=O)c2ccc(Nc3nc(Nc4ccc(F)cc4)nc(Nc4ccc(F)cc4)n3)cc2)cc1`, the GI50 in assay [1] is 14.4 µM; in [2] it was 55.1 µM; in assay [3], 14.2 µM; in [4] it was 6.03 µM; in [5], 23.2 µM; in assay [6], 13 µM. The GI50 in [7] was 4.96 µM; in assay [8], 4.07 µM; in assay [9] it was 26.7 µM; in assay [10], 14.1 µM. Moreover, the TGI in [1] was 32.5 µM; in assay [2], above 100 µM; in assay [3], 42.7 µM; in assay [4], 26.9 µM; in assay [5], 60.1 µM; in assay [6] it was 72.4 µM. For the same compound, the TGI was 30.5 µM in [7], above 100 µM in assay [8], above 100 µM in assay [9] and 53.8 µM in [10].
As to `Cc1cc2nc(-c3ccc(O)c(O)c3)n(Cc3ccc(O)c(O)c3)c2cc1C`, the GI50 in [1] is 35.1 µM; in assay [2], 18.5 µM; in [3], 20.2 µM; in assay [4], 34 µM; in assay [5], 19.7 µM; in assay [6] it was 13.4 µM. Besides, the GI50 is 9.33 µM in assay [7], 7.43 µM in assay [8], 14.6 µM in assay [9] and 24.6 µM in assay [10]. In addition, the TGI was above 100 µM in [1]; 44.8 µM in [2]; 66.3 µM in assay [3]; above 100 µM in assay [4]; above 100 µM in [5]; 43.1 µM in [6]. Further, the TGI in assay [7] is 47.4 µM; in assay [8] it was above 100 µM; in assay [9] it was 77 µM; in assay [10], 56.3 µM.
Consider `NC1=Nc2ccccc2Sc2ccccc21`, for which the TGI in assay [1], in assay [2], in [3], in [4], in [5] and in assay [6] was above 100 µM throughout. The TGI in assay [7], in [8], in assay [9] and in assay [10] was above 100 µM each time.
With `CN1CCN(c2nc3cc(F)ccc3n3cccc23)CC1`, the TGI in assay [1] is above 100 µM; in [2] it was above 100 µM; in assay [3], 52.9 µM; in assay [4], above 100 µM; in [5] it was 79.2 µM; in assay [6], 43 µM. Moreover, the TGI in assay [7], in assay [8], in assay [9] and in assay [10] was above 100 µM in each case.
As for `CC1=C(SCCC(=O)OC(C[Se]C2=C(C)C(=O)c3ccccc3C2=O)C(=O)NC(C)(C)C)C(=O)c2ccccc2C1=O` (stereo not given), the GI50 was 1.13 µM in assay [1]; 1.47 µM in assay [2]; 0.315 µM in assay [3]; 1.57 µM in [4]; 1.44 µM in [5]; 0.44 µM in [6]. The GI50 in [7] is 0.68 µM; in [8], 0.774 µM; in [9] it was 1.43 µM; in assay [10] it was 1.59 µM. The TGI turned out to be 2.69 µM in [1]; 2.99 µM in [2]; 1.21 µM in assay [3]; 2.91 µM in assay [4]; 2.75 µM in assay [5]; 2.06 µM in assay [6]. Besides, the TGI in [7] came to 2.39 µM; in assay [8], 2.59 µM; in [9] it was 2.74 µM; in assay [10] it was 2.96 µM.
Take `Cc1nc2sc(C(=O)Nc3ccccc3)c(N)c2cc1C(=O)c1ccccc1`: the GI50 is 3.99 µM in assay [1]; 3.01 µM in assay [2]; 1.83 µM in assay [3]; 1.81 µM in assay [4]; 1.66 µM in assay [5]; 1.66 µM in [6]. Moreover, the GI50 is 0.0138 µM in assay [7], 1.69 µM in assay [8], 1.91 µM in [9] and 2.19 µM in [10]. The TGI in assay [1], in [2], in assay [3], in assay [4], in assay [5] and in [6] was above 50 µM in each case. Moreover, the TGI in [7] is 38.1 µM; in assay [8] it was above 50 µM; in assay [9], 6.19 µM; in assay [10], 25.8 µM.
In the case of `CCCC(=O)OC(OC(=O)CCC)c1ccc([N+](=O)[O-])o1`, the TGI was 48.8 µM in assay [1]; 31.3 µM in assay [2]; above 100 µM in [3]; 36.5 µM in assay [4]; above 100 µM in [5]; above 100 µM in assay [6]. Besides, the TGI in assay [7] is 88.3 µM; in [8] it was above 100 µM; in [9], 41.4 µM; in [10], 32.1 µM.
Take `C=CCCC(=O)CC(=O)OCc1ccccc1`: the TGI in [1], in assay [2], in assay [3], in [4], in assay [5] and in assay [6] was above 100 µM each time. The TGI in [7], in [8], in [9] and in [10] was above 100 µM each time.
For `CCOc1ccccc1N=Cc1c2ccccc2cc2ccccc12`, the TGI is 45.9 µM in assay [1]; 61.5 µM in [2]; above 100 µM in [3]; 41.1 µM in assay [4]; above 71.4 µM in assay [5]; above 100 µM in assay [6]. Moreover, the TGI was 53 µM in [7], above 67.7 µM in assay [8], above 67.6 µM in [9] and 44.3 µM in assay [10].
In the case of `CC1(C2CCC3(C)C(C2)C3Sc2ccccc2)OCCO1` (stereo not given), the TGI was 66.3 µM in assay [1]; 46.8 µM in assay [2]; 46.5 µM in assay [3]; 33.3 µM in assay [4]; 67.3 µM in [5]; 46.5 µM in assay [6]. The TGI in [7] turned out to be 29.7 µM; in assay [8], 43.7 µM; in assay [9], 30 µM; in assay [10] it was 39.2 µM.
Regarding `O=C1C(OC(=O)c2ccccc2)=C(c2ccc(O)cc2)C(=O)C(OC(=O)c2ccccc2)=C1c1ccc(O)cc1`, the TGI in assay [1], in assay [2], in assay [3], in assay [4], in [5] and in [6] was above 100 µM each time. In addition, the TGI in [7], in assay [8], in assay [9] and in [10] was above 100 µM in each case.
With `COc1ccc(F)cc1-c1ccnc2[nH]c(C3=CCN(C4CCC(CC(=O)O)CC4)CC3)cc12` (stereo not given), the GI50 in assay [1] is 0.185 µM; in assay [2], 0.146 µM; in [3], 0.286 µM; in [4] it was 0.219 µM; in [5] it was 0.0546 µM; in assay [6], 0.236 µM. In addition, the GI50 was 0.0739 µM in assay [7], 0.316 µM in assay [8], 0.107 µM in assay [9] and 0.299 µM in assay [10]. Besides, the TGI in [1] is 2.53 µM; in assay [2], 35.5 µM; in assay [3], 15.4 µM; in [4], 37.3 µM; in assay [5] it was 0.335 µM; in [6], above 100 µM. For the same compound, the TGI in assay [7] was 1.45 µM; in assay [8], above 100 µM; in assay [9], above 100 µM; in assay [10], above 100 µM.
As for `O=C1C(=Cc2ccc(F)cc2)C(=O)c2ccccc21`, the TGI in [1], in assay [3], in assay [4], in [5], in assay [6] and in [7] was above 100 µM in each case. The TGI in assay [8], in assay [9] and in [10] was above 100 µM throughout.
As for `C/C(=N\Nc1n[nH]c(=S)n1N)c1c(O)cc(C)oc1=O`, the TGI in assay [1], in [2], in assay [3], in assay [4], in assay [5] and in assay [6] was above 100 µM throughout. The TGI in [7], in [8] and in [10] was above 100 µM each time.
`CC(=O)OC1=C(CC(C)(C)C)C(=O)c2ccccc2C1=O`: the TGI in assay [1] is 38.8 µM; in assay [3], 70.4 µM; in assay [4], above 100 µM; in [5], above 100 µM; in assay [6], 79.3 µM; in assay [7], 44.5 µM. For the same compound, the TGI in [8] was 39.9 µM; in assay [10], above 100 µM.
In the case of `Cc1ccc(C)c(NC(=O)C(=O)Nn2c(=S)[nH]c3ccccc3c2=O)c1`, the TGI in [1], in [2], in [3], in [4], in assay [5] and in assay [6] was above 100 µM in each case. The TGI in [7], in [8] and in assay [10] was above 100 µM each time.
